Test results from patent US6737383B1, “Herbicidal oxadiazolidines” (priority 1999, dated 2004).

Tests used:
wild mustard = experiment: Test E wild mustard; assay type: in vivo, Sinapis arvensis; conditions: Postemergence
Description: […] A mixture of sandy loam soil and greenhouse potting mix in a 60:40 ratio was used for the postemergence test.
(§1) Plantings of these crops and weed species were adjusted to produce plants of appropriate size for the postemergence test. All plant species were grown using normal greenhouse practices. Crop and weed species include annual bluegrass (Poa annua), blackgrass (Alopecurus myosuroides), black nightshade (Solanum nigra), chickweed (Stellaria media), common poppy (Papaver rhoeas), deadnettle (Lamium amplexicaule), downy brome (Bromus tectorum), field violet (Viola arvensis), galium (Galium aparine), green foxtail (Setaria viridis), Italian ryegrass (Lolium multiflorum), jointed goatgrass (Aegilops cylindrica), kochia (Kochia scoparia), lambsquarters (Chenopodium album), littleseed canarygrass (Phalaris minor), rape (Brassica napus), redroot pigweed (Amaranthus retroflexus), Russian thistle (Salsola kali), scentless chamomile (Matricaria inodora), spring barley (Hordeum vulgare), sugar beet (Beta vulgaris), sunflower (Helianthus annuus), ivyleaf speedwell (Veronica hederaefolia), spring wheat (Triticum aestivum), winter wheat (Triticum aestivum), wild buckwheat (Polygonum convolvulus), wild mustard (Sinapis arvensis), wild oat (Avena fatua), windgrass (Apera spica-venti) and winter barley (Hordeum vulgare).
(§2) Treated plants and untreated controls were maintained in a greenhouse for approximately 21 to 28 days, after which all treated plants were compared to untreated controls and visually evaluated. […] A dash response (-) means no test result.

annual bluegrass = experiment: Test E annual bluegrass; assay type: in vivo, Poa annua; conditions: Preemergence
sunflower [1] = experiment: Test E sunflower; assay type: in vivo, Helianthus annuus; conditions: Postemergence
Description: as §1, with “Plantings of these crops and weed species were adjusted to produce plants of appropriate size for the postemergence test.” left out
as §2

redroot pigweed = experiment: Test E redroot pigweed; assay type: in vivo, Amaranthus retroflexus; conditions: Postemergence
Description: (§3) Compounds evaluated in this test were formulated in a non-phytotoxic solvent mixture which included a surfactant and applied to plants that were in the 1- to 4-leaf stage (postemergence application). A mixture of sandy loam soil and greenhouse potting mix in a 60:40 ratio was used for the postemergence test.
as §1, §2

Russian thistle = experiment: Test E Russian thistle; assay type: in vivo, Salsola kali; conditions: Postemergence
In short: (§4)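 Compounds formulated in non-phytotoxic solvent mixture with surfactant; for postemergence, sprayed on plants at 1- to 4-leaf stage grown in 60:40 sandy loam/greenhouse potting mix. Kept in greenhouse ~21 to 28 days, then visually rated against untreated controls.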

lambsquarters [2] = experiment: Test C postemergence lambsquarters; assay type: in vivo, Chenopodium album; conditions: 0 to 100 scale, 0 no effect, 100 complete control
In short: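 In this greenhouse assay, treated and untreated plants were kept for approximately 14 to 21 days following postemergence application, then rated by eye on a scale from 0 (no effect) to 100 (complete control).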

black nightshade = experiment: Test E black nightshade; assay type: in vivo, Solanum nigra; conditions: Postemergence
Description: as §3, §1, §2

corn = experiment: Test C postemergence corn; assay type: in vivo, Zea mays; conditions: 0 to 100 scale, 0 no effect, 100 complete control
Description: as §3, with “grown for various periods of time before treatment” for “in the 1- to 4-leaf stage”
Plantings of these crops and weed species were adjusted to produce plants of appropriate size for the postemergence test. All plant species were grown using normal greenhouse practices. Crop and weed species include arrowleaf sida (Sida rhombifolia), barnyardgrass (Echinochloa crus-galli), cocklebur (Xanthium strumarium), common ragweed (Ambrosia elatior), corn (Zea mays), cotton (Gossypium hirsutum), eastern black nightshade (Solanum ptycanthum), fall panicum (Panicum dichotomiflorum), field bindweed (Convolvulus arvensis), giant foxtail (Setaria faberii), hairy beggarticks (Bidens pilosa), ivyleaf morningglory (Ipomoea hederacea), johnsongrass (Sorghum halepense), ladysthumb smartweed (Polygonum persicaria), lambsquarters (Chenopodium album), large crabgrass (Digitaria sanguinalis), purple nutsedge (Cyperus rotundus), redroot pigweed (Amaranthus retroflexus), soybean (Glycine max), surinam grass (Brachiaria decumbens), velvetleaf (Abutilon theophrasti) and wild poinsettia (Euphorbia heterophylla).
Treated plants and untreated controls were maintained in a greenhouse for approximately 14, to 21 days, after which all treated plants were compared to untreated controls and visually evaluated. Plant response ratings, summarized in Table C, were based upon a 0 to 100 scale where 0 was no effect and 100 was complete control. A dash response (−) means no test result.

lambsquarters [3] = experiment: Test E lambsquarters; assay type: in vivo, Chenopodium album; conditions: Postemergence
In short: as §4

sunflower [4] = experiment: Test E sunflower; assay type: in vivo, Helianthus annuus; conditions: Preemergence
green foxtail = experiment: Test E green foxtail; assay type: in vivo, Setaria viridis; conditions: Postemergence
In short: as §4

barnyardgrass = experiment: Test A barnyardgrass; assay type: in vivo, Echinochloa crus-galli; conditions: 0 to 10 scale where 0 is no effect and 10 is complete control
In short: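 Ratings came from visual comparison with untreated plants about eleven days after treatment, scored 0 for no effect through 10 for complete control. Both soil-drench preemergence and runoff-spray postemergence applications were made at the same time.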

[5] = Rate 250 g/ha, 0 to 100 scale (0 no effect, 100 complete control)
[6] = Rate 500 g/ha, 0 to 100 scale, 0 no effect, 100 complete control
[7] = Rate 125 g/ha, 0 to 100 scale (0 no effect, 100 complete control)
[8] = Rate 500 g/ha, 0 to 100 scale where 0 is no effect and 100 is complete control
[9] = Rate 62 g/ha, 0 to 100 scale, 0 no effect, 100 complete control

Compound: CCn1c(=O)on(C(=O)N(c2ccc(F)cc2F)C(C)C)c1=O [Compound 116]
- Plant response rating, Wild mustard (wild mustard; Rate 62 g/ha, 0 to 100 scale): 70
- Plant response rating, Wild mustard (wild mustard; Rate 125 g/ha, 0 to 100 scale): 20
- Plant response rating, Wild mustard (wild mustard; [5]): 40
- Plant response rating, Wild mustard (wild mustard; [6]): 40
- Plant response rating, Annual bluegras (annual bluegrass; [7]): 60
- Plant response rating, Annual bluegras (annual bluegrass; Rate 250 g/ha, 0 to 100 scale): 85
- Plant response rating, Annual bluegras (annual bluegrass; [8]): 100
- Plant response rating, Sunflower (sunflower [1]; Rate 62 g/ha, 0 to 100 scale): 20
- Plant response rating, Sunflower (sunflower [1]; Rate 125 g/ha, 0 to 100 scale): 0
- Plant response rating, Sunflower (sunflower [1]; [5]): 0
- Plant response rating, Sunflower (sunflower [1]; [6]): 0
- Plant response rating, Redroot pigweed (redroot pigweed; Rate 62 g/ha, 0 to 100 scale): 0
- Plant response rating, Redroot pigweed (redroot pigweed; Rate 125 g/ha, 0 to 100 scale): 0
- Plant response rating, Redroot pigweed (redroot pigweed; [5]): 0
- Plant response rating, Redroot pigweed (redroot pigweed; [6]): 0
- Plant response rating, Russian thistle (Russian thistle; Rate 62 g/ha, 0 to 100 scale): 40
- Plant response rating, Russian thistle (Russian thistle; Rate 125 g/ha, 0 to 100 scale): 0
- Plant response rating, Russian thistle (Russian thistle; [5]): 0
- Plant response rating, Russian thistle (Russian thistle; [6]): 0
- Plant response rating, Lambsquarters (lambsquarters [2]; Rate 140 g/ha): 0
- Plant response rating, Lambsquarters (lambsquarters [2]; Rate 560 g/ha): 0
- Plant response rating, Lambsquarters (lambsquarters [2]; Rate 1120 g/ha): 0
- Plant response rating, Blk nightshade (black nightshade; Rate 62 g/ha, 0 to 100 scale): 10
- Plant response rating, Blk nightshade (black nightshade; Rate 125 g/ha, 0 to 100 scale): 50
- Plant response rating, Blk nightshade (black nightshade; [5]): 50
- Plant response rating, Blk nightshade (black nightshade; [6]): 60
- Plant response rating, Corn (corn; Rate 140 g/ha): 0
- Plant response rating, Corn (corn; Rate 280 g/ha): 0
- Plant response rating, Corn (corn; Rate 560 g/ha): 15
- Plant response rating, Corn (corn; Rate 1120 g/ha): 20
- Plant response rating, Lambsquarters (lambsquarters [3]; Rate 62 g/ha, 0 to 100 scale): 20
- Plant response rating, Lambsquarters (lambsquarters [3]; Rate 125 g/ha, 0 to 100 scale): 30
- Plant response rating, Lambsquarters (lambsquarters [3]; [5]): 0
- Plant response rating, Lambsquarters (lambsquarters [3]; [6]): 0
- Plant response rating, Sunflower (sunflower [4]; [7]): 15
- Plant response rating, Sunflower (sunflower [4]; Rate 250 g/ha, 0 to 100 scale): 40
- Plant response rating, Sunflower (sunflower [4]; [8]): 70
- Plant response rating, Green foxtail (green foxtail; Rate 62 g/ha, 0 to 100 scale): 20
- Plant response rating, Green foxtail (green foxtail; Rate 125 g/ha, 0 to 100 scale): 70
- Plant response rating, Green foxtail (green foxtail; [5]): 75
- Plant response rating, Green foxtail (green foxtail; [6]): 75

Compound: CCn1c(=O)on(C(=O)N(c2ccc(F)cc2)C(C)C)c1=O [Compound 107]
- Plant response rating, Wild mustard (wild mustard; Rate 62 g/ha, 0 to 100 scale): 5
- Plant response rating, Wild mustard (wild mustard; Rate 125 g/ha, 0 to 100 scale): 90
- Plant response rating, Wild mustard (wild mustard; [5]): 40
- Plant response rating, Annual bluegras (annual bluegrass; [9]): 70
- Plant response rating, Annual bluegras (annual bluegrass; [7]): 80
- Plant response rating, Annual bluegras (annual bluegrass; Rate 250 g/ha, 0 to 100 scale): 85
- Plant response rating, Sunflower (sunflower [1]; Rate 62 g/ha, 0 to 100 scale): 10
- Plant response rating, Sunflower (sunflower [1]; Rate 125 g/ha, 0 to 100 scale): 20
- Plant response rating, Sunflower (sunflower [1]; [5]): 30
- Plant response rating, Redroot pigweed (redroot pigweed; Rate 62 g/ha, 0 to 100 scale): 20
- Plant response rating, Redroot pigweed (redroot pigweed; Rate 125 g/ha, 0 to 100 scale): 10
- Plant response rating, Redroot pigweed (redroot pigweed; [5]): 20
- Plant response rating, Russian thistle (Russian thistle; Rate 62 g/ha, 0 to 100 scale): 0
- Plant response rating, Russian thistle (Russian thistle; Rate 125 g/ha, 0 to 100 scale): 0
- Plant response rating, Russian thistle (Russian thistle; [5]): 0
- Plant response rating, Lambsquarters (lambsquarters [2]; Rate 140 g/ha): 0
- Plant response rating, Lambsquarters (lambsquarters [2]; Rate 280 g/ha): 0
- Plant response rating, Lambsquarters (lambsquarters [2]; Rate 560 g/ha): 40
- Plant response rating, Lambsquarters (lambsquarters [2]; Rate 1120 g/ha): 40
- Plant response rating, Blk nightshade (black nightshade; Rate 62 g/ha, 0 to 100 scale): 10
- Plant response rating, Blk nightshade (black nightshade; Rate 125 g/ha, 0 to 100 scale): 30
- Plant response rating, Blk nightshade (black nightshade; [5]): 60
- Plant response rating, Corn (corn; Rate 140 g/ha): 0
- Plant response rating, Corn (corn; Rate 280 g/ha): 5
- Plant response rating, Corn (corn; Rate 560 g/ha): 55
- Plant response rating, Corn (corn; Rate 1120 g/ha): 60
- Plant response rating, Lambsquarters (lambsquarters [3]; Rate 62 g/ha, 0 to 100 scale): 15
- Plant response rating, Lambsquarters (lambsquarters [3]; Rate 125 g/ha, 0 to 100 scale): 15
- Plant response rating, Lambsquarters (lambsquarters [3]; [5]): 5
- Plant response rating, Sunflower (sunflower [4]; [9]): 20
- Plant response rating, Sunflower (sunflower [4]; [7]): 30
- Plant response rating, Sunflower (sunflower [4]; Rate 250 g/ha, 0 to 100 scale): 40
- Plant response rating, Green foxtail (green foxtail; Rate 62 g/ha, 0 to 100 scale): 20
- Plant response rating, Green foxtail (green foxtail; Rate 125 g/ha, 0 to 100 scale): 30
- Plant response rating, Green foxtail (green foxtail; [5]): 85

Compound: CCOC(=O)Cn1c(=O)on(C(=O)N(c2ccc(F)cc2)C(C)C)c1=O [Compound 128]
- Plant response rating, Barnyardgrass (barnyardgrass; Postemergence, Rate 1000 g/ha): 0
- Plant response rating, Barnyardgrass (barnyardgrass; Pre-emergence, Rate 2000 g/ha): 0

Compound: Cc1ccccc1Cn1c(=O)on(C(=O)N(c2ccc(Cl)cc2)C(C)C)c1=O [Compound 136]
- Plant response rating, Barnyardgrass (barnyardgrass; Postemergence, Rate 1000 g/ha): 4
- Plant response rating, Barnyardgrass (barnyardgrass; Pre-emergence, Rate 2000 g/ha): 9
